Where two headings read alike, the source gives them in different places.
Assays:
[1] = system: 'Tegan Blue' Japanese plum fruit; assay: Climacteric ethylene production in 'Tegan Blue' plum fruit after fumigation; format: in vivo; settings: for level of climacteric ethylene, suppressed, fold in comparison to the solely ethylene treated fruit: then ethylene 10 μL L^-1 24 hr, 'Tegan Blue' plum, P≤0.05
Experimental: Mature ‘Tegan Blue’ and ‘Fortune’ Japanese plum and ‘Arctic Pride’ nectarine fruits of uniform size and maturity, free from visual blemishes and diseases were harvested in early morning from a commercial orchard in Western Australia. Following the harvest, the fruit were brought to the Horticulture Research Laboratory, Curtin University, using a temperature controlled vehicle at 20-25° C. The fruit were treated by fumigation with 0 to 100 nLL^−1 of BC and 1000 nLL^−1 of 1-MCP (Tegan Blue plum) for 18 hr at ambient conditions (20±1° C. and 65±5% RH) by using hermetically sealed plastic containers of 60 L volume. Whatman filter paper (number 2) soaked with specific concentrations of BC and 1-MCP were kept along with the fruit and 30 g of soda lime inside each container. A small battery operated fan was used to ensure equal distribution of the vapours from the chemicals. Half of the treated fruit was exposed to ethylene (10 μL L^−1) for 24 hr following BC and 1-MCP treatment.
The endogenous level of ethylene was determined by using the Sensor Sense (Sensor sense B. V, Nijmegen, The Netherlands). The Sensor Sense includes an ETD 300 ethylene detector, a set of valve controllers with an option of six valves connected to six separate cuvettes [1.0 L air-tight jar, fitted with a rubber septum (SubaSeal®, Sigma-Aldrich Co., St. Louis, USA)]. The continuous flow method was used with coarse mode (conversion factor 99818, capacity to measure ethylene concentration at 0-500 ppm, sensitivity at <1%) of analysis. Each sample was run for 20 minutes with a flow rate of 4.0 L hour^−1 and the average reading of last 15 minutes was considered to calculate the concentration of ethylene and expressed as μmol […] h^−1.
(§1) The experimental data were analysed following one-way analysis of variance (ANOVA) by using Genstat 13 (release 13.1; Lawes Agricultural Trust, Rothamsted Experimental Station, Harpenden, UK). The effects of various treatments and their interactions were assessed and least significant differences (Fisher's LSD) were calculated by F test at 5% level of significance.

[2] = system: 'Arctic Pride' nectarine fruit; assay: Climacteric ethylene production in 'Arctic Pride' nectarine fruit after fumigation; format: in vivo; settings: 50 nLL^-1 fumigation, then ethylene 10 μL L^-1
Experimental: (§2) Mature ‘Tegan Blue’ and ‘Fortune’ Japanese plum and ‘Arctic Pride’ nectarine fruits of uniform size and maturity, free from visual blemishes and diseases were harvested in early morning from a commercial orchard in Western Australia. Following the harvest, the fruit were brought to the Horticulture Research Laboratory, Curtin University, using a temperature controlled vehicle at 20-25° C. The fruit were treated by fumigation with 0 to 100 nLL^−1 of BC and 1000 nLL^−1 of 1-MCP (Tegan Blue plum) for 18 hr at ambient conditions (20±1° C. and 65±5% RH) by using hermetically sealed plastic containers of 60 L volume. […]
The endogenous level of ethylene was determined by using the Sensor Sense (Sensor sense B. V, Nijmegen, The Netherlands). […] Each sample was run for 20 minutes with a flow rate of 4.0 L hour^−1 and the average reading of last 15 minutes was considered to calculate the concentration of ethylene and expressed as μmol […] h^−1.
as §1

[3] = system: 'Tegan Blue' Japanese plum fruit; assay: Climacteric respiration (CO2 production) in 'Tegan Blue' plum fruit; format: in vivo
Experimental: as §2
(§3) Respiration rate was determined as carbon dioxide (CO2) production from the fruit during ripening period a using CO2 analyser. […] The respiration rate was calculated on the basis of the peak areas of 2.0 mL gas sample and CO2 standard (8.52±0.17%) and expressed as mmoL CO2 […] h^−1.
as §1

[4] = system: 'Arctic Pride' nectarine fruit; assay: Climacteric respiration (CO2 production) in 'Arctic Pride' nectarine fruit; format: in vivo
Experimental: as §2, §3, §1

[5] = system: WX17 wax flower; assay: Flower/bud abscission in WX17 wax flower; format: in vivo, Chamelaucium Desf.; settings: 100 nLL^-1 fumigation followed by ethylene 10 μLL^-1
Experimental: (§4) To evaluate the effects of BC and NC on flower abscission, flowering stems of Wax flower (Chamelaucium Desf.) (WX17, WX73 and WX107) were collected from mature bushes grown at Department of Agriculture and Food Western Australia (DAFWA), Perth (31° 58′ 55″ S/115° 51′ 47″ E). Collected stems were immediately placed upright in buckets with water and recut at 20-25 cm in length (from the cut end to the most extreme opened-flowers). The flower stalks were treated similarly as the fruits with BC (0-100 nLL^−1) or NC (0-100 nLL^−1) and ethylene. The experiments were laid out by following CRD design, having five replications for each treatment and five stalks in each replication. During the treatment period, the flower stalks were placed in small plastic bottles with distilled water. A cone made of nylon mesh was placed at the base of the stalks to check the number of abscised flowers. […]
as §1

[6] = system: WX73 wax flower; assay: Flower/bud abscission in WX73 wax flower; format: in vivo, Chamelaucium Desf.
Experimental: as §4, §1

[7] = Stability at room temperature; format: physicochemical
[8] = Solubility in water; format: physicochemical
[9] = gas at room temperature; background statement; cited from earlier work

Structure (SMILES) | level of climacteric ethylene, suppressed, fold in comparison to the solely ethylene treated fruit ([1]; 100 nLL^-1 fumigation 18 hr) | difference between effects of BC (100 nL L^-1) and 1-MCP (1000 nL L^-1) on climacteric ethylene and respiration ([1]; 'Tegan Blue' and 'Fortune' plum, 'Arctic Pride' nectarine, ethylene and respiration) | level of ethylene, suppressed, fold versus the solely ethylene treated fruit [2] | climacteric respiration, suppressed, fold versus the solely ethylene treated fruit ([3]; 100 nLL^-1 fumigation + ethylene) | respiration climacteric, suppression, fold in comparison to the solely ethylene treated fruit ([4]; 50 nLL^-1 fumigation + ethylene) | respiration climacteric, suppression, fold in comparison to the solely ethylene treated fruit ([4]; 50 nLL^-1 fumigation, no ethylene exposure) | rate of flower/bud abscission [5] | rate of flower/bud abscission ([6]; 50 nL L^-1 fumigation followed by ethylene) | rate of flower/bud abscission ([6]; 100 nL L^-1 fumigation followed by ethylene) | stability [7] | solubility in water [8] | level of climacteric ethylene, suppressed, fold in comparison to the solely ethylene treated fruit ([1]; 1000 nLL^-1 fumigation 18 hr) | climacteric respiration, suppressed, fold versus the solely ethylene treated fruit ([3]; 1000 μLL^-1 (so in the source) fumigation + ethylene) | stability [9]
c1ccc2c(c1)C2 [BC, benzocyclopropene] | 0.80 fold | non-significant differences | 0.63 fold | 0.83 fold | 0.77 fold | 0.71 fold | 6.05% | 22.43% | 28.40% | stable at room temperature for several months | only partially soluble in water | – | – | –
CC1=CC1 [1-MCP, 1-Methylcyclopropene, reference compound] | – | – | – | – | – | – | – | – | – | – | – | 0.70 fold | 0.77 fold | highly unstable

— patent US20180325106A1, “METHOD OF RETARDING AN ETHYLENE RESPONSE” (CURTIN UNIVERSITY OF TECHNOLOGY, priority 2015, published 2018)
